In patent publication US20220112187A1, “PYRAZOLOPYRIDINE AMINE COMPOUNDS FOR THE TREATMENT OF AUTOIMMUNE DISEASE” (Hoffmann-La Roche Inc., priority 2018, published 2022):
pIC50: −log10 of the molar value.

Target: T1, human TLR8 (Homo sapiens, UniProt Q9NR97)
T1 sequence (Q9NR97 27-1041): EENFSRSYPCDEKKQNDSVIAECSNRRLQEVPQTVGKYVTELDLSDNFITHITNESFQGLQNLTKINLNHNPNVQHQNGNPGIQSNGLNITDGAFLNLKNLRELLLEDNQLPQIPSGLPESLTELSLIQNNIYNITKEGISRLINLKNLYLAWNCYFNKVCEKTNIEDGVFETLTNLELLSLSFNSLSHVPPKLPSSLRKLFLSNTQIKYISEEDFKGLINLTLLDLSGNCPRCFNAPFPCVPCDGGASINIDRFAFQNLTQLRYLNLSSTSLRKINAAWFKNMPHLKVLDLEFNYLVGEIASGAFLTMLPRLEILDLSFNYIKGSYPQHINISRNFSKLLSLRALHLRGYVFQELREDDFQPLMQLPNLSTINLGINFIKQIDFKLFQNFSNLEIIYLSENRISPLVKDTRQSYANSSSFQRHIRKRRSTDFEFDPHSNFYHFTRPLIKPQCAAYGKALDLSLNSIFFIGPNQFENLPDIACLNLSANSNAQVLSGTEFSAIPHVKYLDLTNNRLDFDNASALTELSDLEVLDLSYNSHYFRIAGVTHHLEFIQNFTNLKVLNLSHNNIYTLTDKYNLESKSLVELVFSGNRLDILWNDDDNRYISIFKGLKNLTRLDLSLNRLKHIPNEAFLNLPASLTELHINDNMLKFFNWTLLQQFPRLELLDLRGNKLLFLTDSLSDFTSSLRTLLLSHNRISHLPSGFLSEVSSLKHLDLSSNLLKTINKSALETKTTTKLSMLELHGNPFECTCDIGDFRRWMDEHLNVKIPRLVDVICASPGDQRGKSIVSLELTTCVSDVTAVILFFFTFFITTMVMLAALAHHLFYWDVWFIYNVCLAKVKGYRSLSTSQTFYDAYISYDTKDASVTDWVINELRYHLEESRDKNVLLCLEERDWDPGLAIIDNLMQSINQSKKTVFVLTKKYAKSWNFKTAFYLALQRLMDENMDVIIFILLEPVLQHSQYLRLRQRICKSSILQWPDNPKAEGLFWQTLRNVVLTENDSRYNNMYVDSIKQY
Assay: HEK293-Blue-hTLR-8 cells assay (SEAP reporter, R848 stimulation)
Format: cell-based
Details: HEK293-Blue-hTLR8 cells, R848 ligand, 20 hrs incubation
Excerpt: A stable HEK293-Blue-hTLR-8 cell line was purchased from InvivoGen (Cat. #: hkb-htlr8, San Diego, Calif., USA). These cells were originally designed for studying the stimulation of human TLR8 by monitoring the activation of NF-κB. A SEAP (secreted embryonic alkaline phosphatase) reporter gene was placed under the control of the IFN-β minimal promoter fused to five NF-κB and AP-1-binding sites. The SEAP was induced by activating NF-κB and AP-1 via stimulating HEK-Blue hTLR8 cells with TLR8 ligands. Therefore the reporter expression was declined by TLR8 antagonist under the stimulation of a ligand, such as R848, for incubation of 20 hrs. The cell culture supernatant SEAP reporter activity was determined using QUANTI-Blue™ kit (Cat. #: rep-qb1, Invivogen, San Diego, Ca, USA) at a wavelength of 640 nm, a detection medium that turns purple or blue in the presence of alkaline phosphatase.
HEK293-Blue-hTLR8 cells were incubated at a density of 250,000˜450,000 cells/mL in a volume of 170 μL in a 96-well plate in Dulbecco's Modified Eagle's medium (DMEM) containing 4.5 g/L glucose, 50 U/mL penicillin, […], […], 2 mM L-glutamine, 10% (v/v) heat-inactivated fetal bovine serum with addition of 20 μL test compound in a serial dilution in the presence of final DMSO at 1% and 10 μL of 60 uM R848 in above DMEM, perform incubation under 37° C. in a CO2 incubator for 20 hrs. Then 20 μL of the supernatant from each well was incubated with 180 μL Quanti-blue substrate solution at 37° C. for 2 hrs and the absorbance was read at 620˜655 nm using a spectrophotometer. The signalling pathway that TLR8 activation leads to downstream NF-κB activation has been widely accepted, and therefore similar reporter assay was modified for evaluating TLR8 antagonist.

pIC50 | SMILES
7.96 | C[C@@H]1CN(c2ccc(C#N)n3ncc(F)c23)C[C@H](CN2CCCC3(CCNC3)C2)O1 (stereo partly drawn) [Example 68, 3-fluoro-4-[(2S,6R)-2-(2,7-diazaspiro[4.5]decan-7-ylmethyl)-6-methyl-morpholin-4-yl]pyrazolo[1,5-a]pyridine-7-carbonitrile]
6.82 | C[C@@H]1CN(c2ccc(C#N)n3nccc23)C[C@H](CN2CC3CCNCC3C2)O1 (stereo partly drawn) [Example 49, 4-[(2S,6R)-2-(1,3,3a,4,5,6,7,7a-octahydropyrrolo[3,4-c]pyridin-2-ylmethyl)-6-methyl-morpholin-4-yl]pyrazolo[1,5-a]pyridine-7-carbonitrile]
6.02 | C[C@@H]1CN(c2ccc(C#N)n3nccc23)C[C@H](CN2CC(N)C(F)(F)C2)O1 (stereo partly drawn) [Example 35, 4-[(2S,6R)-2-[(4-amino-3,3-difluoro-pyrrolidin-1-yl)methyl]-6-methyl-morpholin-4-yl]pyrazolo[1,5-a]pyridine-7-carbonitrile]
6.21 | C[C@@H]1CN(c2ccc(C#N)n3nccc23)C[C@H](CN2CCC3(CCNCC3)CC2)O1 [Example 3, 4-[(2S,6R)-2-(3,9-diazaspiro[5.5]undecan-3-ylmethyl)-6-methyl-morpholin-4-yl]pyrazolo[1,5-a]pyridine-7-carbonitrile]
6.60 | C[C@@H]1CN(c2ccc(C#N)n3nccc23)C[C@H](CN2CCC3(CCNC3)CC2)O1 [Example 19, 4-[(2S,6R)-2-(2,8-diazaspiro[4.5]decan-8-ylmethyl)-6-methyl-morpholin-4-yl]pyrazolo[1,5-a]pyridine-7-carbonitrile]
7.43 | C[C@@H]1CN(c2ccc(C#N)n3nccc23)C[C@H](CN2CCN[C@H](c3ccccc3)C2)O1 [Example 38, 4-[(2R,6S)-2-methyl-6-[[(3R)-3-phenylpiperazin-1-yl]methyl]morpholin-4-yl]pyrazolo[1,5-a]pyridine-7-carbonitrile]
7.16 | C[C@@H]1CN(c2ccc(C#N)n3nccc23)C[C@H](CN2CC3CNCC3C2)O1 (stereo partly drawn) [Example 22, 4-[(2S,6R)-2-(2,3,3a,4,6,6a-hexahydro-1H-pyrrolo[3,4-c]pyrrol-5-ylmethyl)-6-methyl-morpholin-4-yl]pyrazolo[1,5-a]pyridine-7-carbonitrile]
7.19 | CC1CNCCN1C[C@H]1CN(c2ccc(C#N)n3nccc23)C[C@@H](C)O1 (single isomer, unassigned) [Example 50A]
6.72 | C[C@@H]1CN(c2ccc(C#N)n3nccc23)C[C@H](CN2CCC3(CCCNC3)CC2)O1 [Example 27, 4-[(2S,6R)-2-(2,9-diazaspiro[5.5]undecan-9-ylmethyl)-6-methyl-morpholin-4-yl]pyrazolo[1,5-a]pyridine-7-carbonitrile]
6.92 | C[C@@H]1CN(c2ccc(C#N)n3nccc23)C[C@H](CN2CCC3NCC3C2)O1 (stereo partly drawn) [Example 70, 4-[(2S,6R)-2-(3,7-diazabicyclo[4.2.0]octan-3-ylmethyl)-6-methyl-morpholin-4-yl]pyrazolo[1,5-a]pyridine-7-carbonitrile]
7.28 | C[C@@H]1CN(c2ccc(C#N)n3nccc23)C[C@H](CN2CC3CNCCC32)O1 (stereo partly drawn) [Example 52, 4-[(2S,6R)-2-(3,7-diazabicyclo[4.2.0]octan-7-ylmethyl)-6-methyl-morpholin-4-yl]pyrazolo[1,5-a]pyridine-7-carbonitrile]
6.74 | C[C@@H]1CN(c2ccc(C#N)n3nccc23)C[C@H](CN2CCN(C)CC2)O1 [Example 15, 4-[(2R,6S)-2-methyl-6-[(4-methylpiperazin-1-yl)methyl]morpholin-4-yl]pyrazolo[1,5-a]pyridine-7-carbonitrile]
7.39 | C[C@@H]1CN(c2ccc(C#N)n3nccc23)C[C@H](CN2CCCC3(CCCNC3)C2)O1 (stereo partly drawn) [Example 23, 4-[(2S,6R)-2-(2,8-diazaspiro[5.5]undecan-2-ylmethyl)-6-methyl-morpholin-4-yl]pyrazolo[1,5-a]pyridine-7-carbonitrile]
6.13 | C[C@@H]1CN(c2ccc(C#N)n3nccc23)C[C@H](CN2CCC(CCN)CC2)O1 [Example 13, 4-[(2S,6R)-2-[[4-(2-aminoethyl)-1-piperidyl]methyl]-6-methyl-morpholin-4-yl]pyrazolo[1,5-a]pyridine-7-carbonitrile]
7.02 | C[C@@H]1CN(c2ccc(C#N)n3nccc23)C[C@H](CN2CCC3(CC2)CNCCO3)O1 [Example 60, 4-[(2R,6S)-2-methyl-6-(1-oxa-4,9-diazaspiro[5.5]undecan-9-ylmethyl)morpholin-4-yl]pyrazolo[1,5-a]pyridine-7-carbonitrile]
7.06 | C[C@@H]1CN(c2ccc(C#N)n3nccc23)C[C@H](CN2CCC3(CCCNC3)C2)O1 (stereo partly drawn) [Example 25, 4-[(2S,6R)-2-(2,9-diazaspiro[4.5]decan-2-ylmethyl)-6-methyl-morpholin-4-yl]pyrazolo[1,5-a]pyridine-7-carbonitrile]
6.92 | C[C@@H]1CN(c2ccc(C#N)n3nccc23)C[C@H](CN2CCCC3NCCCC32)O1 (stereo partly drawn) [Example 64, 4-[(2S,6R)-2-(3,4,4a,5,6,7,8,8a-octahydro-2H-1,5-naphthyridin-1-ylmethyl)-6-methyl-morpholin-4-yl]pyrazolo[1,5-a]pyridine-7-carbonitrile]
7.59 | C[C@@H]1CN(c2ccc(C#N)n3ncc(F)c23)C[C@H](CN2CCC3(CCCNC3)C2)O1 (stereo partly drawn) [Example 69, 3-fluoro-4-[(2S,6R)-2-(2,9-diazaspiro[4.5]decan-2-ylmethyl)-6-methyl-morpholin-4-yl]pyrazolo[1,5-a]pyridine-7-carbonitrile]
7.28 | C[C@@H]1CN(c2ccc(C#N)n3nccc23)C[C@H](CN2CCC(C)(N)CC2)O1 [Example 29, 4-[(2S,6R)-2-[(4-amino-4-methyl-1-piperidyl)methyl]-6-methyl-morpholin-4-yl]pyrazolo[1,5-a]pyridine-7-carbonitrile]
7.11 | C[C@@H]1CN(c2ccc(C#N)n3nccc23)C[C@H](CN2CCNCC2)O1 [Example 5, 4-[(2R,6S)-2-methyl-6-(piperazin-1-ylmethyl)morpholin-4-yl]pyrazolo[1,5-a]pyridine-7-carbonitrile]
7.36 | C[C@@H]1CN(c2ccc(C#N)n3nccc23)C[C@H](CN2CCC[C@@H]3NCCC32)O1 (stereo partly drawn) [Example 63, 4-[(2R,6S)-2-methyl-6-[[cis-(3aS,7aS)-1,2,3,3a,5,6,7,7a-octahydropyrrolo[3,2-b]pyridin-4-yl]methyl]morpholin-4-yl]pyrazolo[1,5-a]pyridine-7-carbonitrile]
7.05 | C[C@@H]1CN(c2ccc(C#N)n3nccc23)C[C@H](CN2CC3CCC(C2)C3N)O1 (stereo partly drawn) [Example 36, 4-[(2S,6R)-2-[(8-amino-3-azabicyclo[3.2.1]octan-3-yl)methyl]-6-methyl-morpholin-4-yl]pyrazolo[1,5-a]pyridine-7-carbonitrile]

SMILES | pIC50
C[C@@H]1CN(c2ccc(C#N)n3nccc23)C[C@H](CN2C3CCC2CC(N)C3)O1 (stereo partly drawn) [Example 37, 4-[(2S,6R)-2-[(3-amino-8-azabicyclo[3.2.1]octan-8-yl)methyl]-6-methyl-morpholin-4-yl]pyrazolo[1,5-a]pyridine-7-carbonitrile] | 7.35
C[C@@H]1CN(c2ccc(C#N)n3nccc23)C[C@H](CN2CC3CCC(C2)N3)O1 [Example 31, 4-[(2S,6R)-2-(3,8-diazabicyclo[3.2.1]octan-3-ylmethyl)-6-methyl-morpholin-4-yl]pyrazolo[1,5-a]pyridine-7-carbonitrile] | 7.01
